The results in this text go back to patent US11712457B2, “Syringa pubescens microphylla seed extract composition and its application in antibiotic-resistant infections” (SHAANXI UNIVERSITY OF SCIENCE AND TECHNOLOGY, priority 2020, dated 2023).

Holding throughout (assay): Paper diffusion drug sensitivity test (zone of inhibition)
What all share (format): cell-based

Test [1] has as its system Staphylococcus aureus (SAU). The following applies: LB agar, 37° C., 24 h, control drugs 30 μg/tablet, extract 128 μg/tablet, ≥17 mm sensitive, 15-16 mm intermediate, ≤14 mm resistant. As for the experimental part: (§1) The bacteriostatic activity test experiment was carried out on the Syringa pubescens microphylla extract of the present invention, and the bacteriostatic effect was determined by a paper diffusion drug sensitivity method.
(§2) Experimental strains: Staphylococcus aureus (SAU), multi-drug resistant Staphylococcus aureus 18-206, multi-drug resistant Pseudomonas aeruginosa 18-261. The experimental strains were provided by Huashan Hospital, Fudan University (Institute of Antibiotics, Fudan University).
(§3) Drug sensitive paper: The drug sensitive paper is a special drug sensitive paper with a diameter of 6.35 mm and a water absorption of 0.02 mL. The control drugs were cefazolin sodium (30 μg/tablet), vancomycin (30 μg/tablet) and gentamicin (30 μg/tablet); the test drug was the Syringa pubescens microphylla extract (128 μg/tablet).
(§4) The experimental strains were inoculated in a non-selective medium and incubated in air at 37 C for 24 hours. A single colony was selected and inoculated into a broth medium, and incubated at 35±2° C. for 6 hours. LA broth medium was used to correct the concentration of the bacterial solution to 1.5×10^8 CFU/mL to obtain a bacterial suspension.
(§5) Weighing LB dry powder, autoclaving at 103.4 Kpa, 121.3° C. for 15 min, then placing in a 40° C.-50° C. water bath. Sterile empty plates (with an inner diameter of 9 cm) were placed on a water platform of the ultra-clean table. LB solution was poured to the plates, with agar thickness of 3 mm-4 mm. After the plates were cooled at room temperature, they were stored in a refrigerator at 2° C. to 8° C. Bacteria liquid was spread evenly with a sterile cotton swab on the surface of the LB plate 3 times. The LB plate was dried at room temperature for 3 min to 5 min. An antibacterial drug paper sheet was placed in the plate using sterile tweezers. The plates were placed in a 37° C. incubator for 24 h. The diameter of inhibition zone was measured. 0.5% DMSO solution was used as the negative control. The diameter of inhibition zone was to measure the antibacterial activity. Inhibition zone≥17 mm, sensitive; inhibition zone=15 mm-16 mm, intermediate; inhibition zone≤14 mm, resistant.

Test [2] deals with multi-drug resistant Pseudomonas aeruginosa 18-261. The following applies: strain 18-261; LB agar, 37° C., 24 h; control drugs 30 μg/tablet, extract 128 μg/tablet; ≥17 mm sensitive, 15-16 mm intermediate, ≤14 mm resistant. As for the experimental part: as §1, §2, §3, §4, §5
For test [3], the system named is multi-drug resistant Staphylococcus aureus 18-171. The following applies: strain 18-171; LB agar, 37° C., 24 h; control drugs 30 μg/tablet, extract 128 μg/tablet; ≥17 mm sensitive, 15-16 mm intermediate, ≤14 mm resistant.

`Cc1nnc(SCC2=C(C(=O)O)N3C(=O)[C@@H](NC(=O)Cn4cnnn4)[C@H]3SC2)s1` [cefazolin sodium]: the “Diameter of Inhibition Zone” value in test [1] is given as 10 mm; in test [2] it was 0 mm; in test [3], 0 mm.

For the compound `CN[C@H](CC(C)C)C(=O)N[C@H]1C(=O)N[C@@H](CC(N)=O)C(=O)N[C@H]2C(=O)N[C@H]3C(=O)N[C@H](C(=O)N[C@H](C(=O)O)c4cc(O)cc(O)c4-c4cc3ccc4O)[C@H](O)c3ccc(c(Cl)c3)Oc3cc2cc(c3O[C@@H]2O[C@H](CO)[C@@H](O)[C@H](O)[C@H]2O[C@H]2C[C@](C)(N)[C@H](O)[C@H](C)O2)Oc2ccc(cc2Cl)[C@H]1O` [vancomycin], the “Diameter of Inhibition Zone” value was determined as 23 mm in test [1] and 17 mm in test [3].

gentamicin: the “Diameter of Inhibition Zone” value was 18 mm in test [1], 17 mm in test [2] and 16 mm in test [3].
